From patent US10092551B2, “Spiro-thiazolones” (Hoffmann-La Roche Inc., priority 2014, dated 2018)

target: human V1a receptor (Homo sapiens (Human), UniProt P37288); test: human V1a receptor binding studies (3H-Vasopressin, SPA beads); settings: membranes of HEK293 cells transiently transfected with human V1a receptor, Ki by Cheng-Prussoff
How it was run: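 Membranes from HEK293 cells transiently expressing cloned human V1a receptor, bound on yttrium silicate SPA beads with 4 nM 3H-vasopressin (added stock) and serially diluted compound, 1 h at room temperature. Non-specific binding defined with cold vasopressin; IC50 by non-linear regression, Ki via Cheng-Prusoff.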

Chain of human V1a receptor (P37288 whole entry): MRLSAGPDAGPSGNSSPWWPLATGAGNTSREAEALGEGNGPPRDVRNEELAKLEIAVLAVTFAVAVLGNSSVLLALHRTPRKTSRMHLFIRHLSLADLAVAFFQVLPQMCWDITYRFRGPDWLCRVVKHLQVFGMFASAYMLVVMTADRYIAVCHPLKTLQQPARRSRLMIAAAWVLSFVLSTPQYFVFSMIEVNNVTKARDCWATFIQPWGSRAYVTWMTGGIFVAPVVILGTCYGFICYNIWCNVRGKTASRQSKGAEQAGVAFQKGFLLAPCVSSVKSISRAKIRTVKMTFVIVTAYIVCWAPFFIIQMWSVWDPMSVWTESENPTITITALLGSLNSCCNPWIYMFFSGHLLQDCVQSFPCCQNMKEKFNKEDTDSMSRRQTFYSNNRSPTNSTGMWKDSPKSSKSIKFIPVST

Compared with `C/C(=C1/SC(N2CCC3(CC2)OCc2ncccc23)=NC1=O)c1oc(C)nc1C` [Example 167, (5E/Z)-5-[1-(2,4-dimethyl-1,3-oxazol-5-yl)ethylidene]-2-(1′H,7H-spiro[furo[3,4-b]pyridine-5,4′-piperidin]-1′-yl)-1,3-thiazol-4(5H)-one], `CC(=C1SC(N2CCC3(CC2)OCc2ccccc23)=NC1=O)c1c(C)noc1C` (stereo in doubt) [Example 105, (5E)-5-[1-(3,5-dimethyl-1,2-oxazol-4-yl)ethylidene]-2-(1′H,3H-spiro[2-benzofuran-1,4′-piperidin]-1′-yl)-1,3-thiazol-4(5H)-one] is higher in “pKi hV1a” value: 6.5 for the first, 8.7 for the second.

Compared with `CS(=O)(=O)N1CCC(=C2SC(N3CCC4(CC3)OCc3ccccc34)=NC2=O)CC1` [Example 68, 5-[1-(methylsulfonyl)piperidin-4-ylidene]-2-(1′H,3H-spiro[2-benzofuran-1,4′-piperidin]-1′-yl)-1,3-thiazol-4(5H)-one], `O=C1N=C(N2CCC3(CC2)OCc2ccccc23)SC1=C1CCCCC1` [Example 52, 5-cyclohexylidene-2-(1′H,3H-spiro[2-benzofuran-1,4′-piperidin]-1′-yl)-1,3-thiazol-4(5H)-one] is higher in “pKi hV1a” value: 7.7 for the first, 8.5 for the second.

Compared with `CC(C)(C)[Si](C)(C)OC/C(=C1\SC(N2CCC3(CC2)OC(=O)c2ccccc23)=NC1=O)c1ccccc1` [Example 141, 1′-[(5Z)-5-(2-{[tert-butyl(dimethyl)silyl]oxy}-1-phenylethylidene)-4-oxo-4,5-dihydro-1,3-thiazol-2-yl]-3H-spiro[2-benzofuran-1,4′-piperidin]-3-one], `CC(C)(C)[Si](C)(C)OC/C(=C1/SC(N2CCC3(CC2)OCc2ccccc23)=NC1=O)c1ccccc1` [Example 123, (5E)-5-(2-{[tert-butyl(dimethyl)silyl]oxy}-1-phenylethylidene)-2-(1′H,3H-spiro[2-benzofuran-1,4′-piperidin]-1′-yl)-1,3-thiazol-4(5H)-one] is higher in “pKi hV1a” value: 7.6 for the first, 8.5 for the second.

Compared with `C/C(=C1/SC(N2CCC3(CC2)OCc2ccccc23)=NC1=O)c1ccc(Cl)nc1` [Example 96, (5Z)-5-[1-(6-chloropyridin-3-yl)ethylidene]-2-(1′H,3H-spiro[2-benzofuran-1,4′-piperidin]-1′-yl)-1,3-thiazol-4(5H)-one], `C/C(=C1/SC(N2CCC3(CC2)OCc2ccccc23)=NC1=O)c1ccc(Cl)cc1` [Example 1, (5E/Z)-5-[1-(4-chlorophenyl)ethylidene]-2-(1′H,3H-spiro[2-benzofuran-1,4′-piperidin]-1′-yl)-1,3-thiazol-4(5H)-one] is lower in “pKi hV1a” value: 9.4 for the first, 8.9 for the second.

Compared with `O=C1N=C(N2CCC3(CC2)OCc2ccccc23)SC1=C1c2ccccc2CCc2ccccc21` [Example 98, 5-(10,11-dihydro-5H-dibenzo[a,d][7]annulen-5-ylidene)-2-(1′H,3H-spiro[2-benzofuran-1,4′-piperidin]-1′-yl)-1,3-thiazol-4(5H)-one], `O=C1N=C(N2CCC3(CC2)OCc2ccccc23)S/C1=C\c1ccccc1` [Example 9, (5Z)-5-benzylidene-2-(1′H,3H-spiro[2-benzofuran-1,4′-piperidin]-1′-yl)-1,3-thiazol-4(5H)-one] is lower in “pKi hV1a” value: 8.6 for the first, 8.4 for the second.

First: C/C(=C1/SC(N2CCC3(CC2)OCc2ccccc23)=NC1=O)C1CC1 [Example 42, (5E/Z)-5-(1-cyclopropylethylidene)-2-(1′H,3H-spiro[2-benzofuran-1,4′-piperidin]-1′-yl)-1,3-thiazol-4(5H)-one]
Second: O=C1N=C(N2CCC3(CC2)OCc2ccccc23)SC1=C(C1CC1)C1CC1 [Example 115, 5-(dicyclopropylmethylidene)-2-(1′H,3H-spiro[2-benzofuran-1,4′-piperidin]-1′-yl)-1,3-thiazol-4(5H)-one]
The “pKi hV1a” value of the first is lower: 8.4 for the first, 8.9 for the second.

`O=C1N=C(N2CCC3(CC2)OC(=O)c2ccccc23)S/C1=C(\CO)c1ccc(Cl)nc1` [Example 147, 1′-{(5Z)-5-[1-(6-chloropyridin-3-yl)-2-hydroxyethylidene]-4-oxo-4,5-dihydro-1,3-thiazol-2-yl}-3H-spiro[2-benzofuran-1,4′-piperidin]-3-one] and `O=C1N=C(N2CCC3(CC2)OC(=O)c2ccccc23)S/C1=C(/CO)c1ccc(Cl)nc1` [Example 145, 1′-{(5E)-5-[1-(6-chloropyridin-3-yl)-2-hydroxyethylidene]-4-oxo-4,5-dihydro-1,3-thiazol-2-yl}-3H-spiro[2-benzofuran-1,4′-piperidin]-3-one] are the same in “pKi hV1a” value: 8.0 for the first, 8.0 for the second.

Going from `CC/C(=C1/SC(N2CCC3(CC2)OC(=O)c2ccccc23)=NC1=O)c1ccc(Cl)nc1` [Example 150, 1′-{(5Z)-5-[1-(6-chloropyridin-3-yl)propylidene]-4-oxo-4,5-dihydro-1,3-thiazol-2-yl}-3H-spiro[2-benzofuran-1,4′-piperidin]-3-one] to `C/C(=C1/SC(N2CCC3(CC2)OC(=O)c2ccccc23)=NC1=O)c1ccc(C)nc1` [Example 135, 1′-{(5Z)-5-[1-(6-methylpyridin-3-yl)ethylidene]-4-oxo-4,5-dihydro-1,3-thiazol-2-yl}-3H-spiro[2-benzofuran-1,4′-piperidin]-3-one], the “pKi hV1a” value falls from 9.0 to 7.9.

`C/C(=C1/SC(N2CCC3(CC2)OCc2ccccc23)=NC1=O)c1ccncc1` [Example 33, (5Z)-5-[1-(pyridin-4-yl)ethylidene]-2-(1′H,3H-spiro[2-benzofuran-1,4′-piperidin]-1′-yl)-1,3-thiazol-4(5H)-one] and `CC/C(=C1/SC(N2CCC3(CC2)OCc2ccccc23)=NC1=O)c1ccncc1` [Example 31, (5Z)-5-[1-(pyridin-4-yl)propylidene]-2-(1′H,3H-spiro[2-benzofuran-1,4′-piperidin]-1′-yl)-1,3-thiazol-4(5H)-one] are within 0.2 log units of each other in “pKi hV1a” value: 8.3 for the first, 8.4 for the second.

First: O=C1N=C(N2CCC3(CC2)OC(=O)c2ccccc23)SC1=C(C1CC1)C1CC1 [Example 139, 1′-[5-(dicyclopropylmethylidene)-4-oxo-4,5-dihydro-1,3-thiazol-2-yl]-3H-spiro[2-benzofuran-1,4′-piperidin]-3-one]
Second: O=C1N=C(N2CCC3(CC2)OCc2ccccc23)S/C1=C(\c1ccc(Cl)cc1)C1CC1 [Example 22, (5E/Z)-5-[(4-chlorophenyl)(cyclopropyl)methylidene]-2-(1′H,3H-spiro[2-benzofuran-1,4′-piperidin]-1′-yl)-1,3-thiazol-4(5H)-one]
The “pKi hV1a” value of the first is higher: 8.5 for the first, 7.8 for the second.

Compared with `C/C(=C1/SC(N2CCC3(CC2)OCc2ccccc23)=NC1=O)c1nc[nH]c1C` [Example 109, (5E/Z)-5-[1-(5-methyl-1H-1-imidazol-4-yl)ethylidene]-2-(1′H,3H-spiro[2-benzofuran-1,4′-piperidin]-1′-yl)-1,3-thiazol-4(5H)-one], `C/C(=C1/SC(N2CCC3(CC2)OCc2ccccc23)=NC1=O)c1cccnc1Cl` [Example 83, (5Z)-5-[1-(2-chloropyridin-3-yl)ethylidene]-2-(1′H,3H-spiro[2-benzofuran-1,4′-piperidin]-1′-yl)-1,3-thiazol-4(5H)-one] is higher in “pKi hV1a” value: 6.6 for the first, 8.8 for the second.

Going from `O=C1N=C(N2CCC3(CC2)OCc2ccccc23)S/C1=C\c1ccncc1` [Example 95, 5-(pyridin-4-ylmethylidene)-2-(1′H,3H-spiro[2-benzofuran-1,4′-piperidin]-1′-yl)-1,3-thiazol-4(5H)-one] to `Cc1cc(/C=C2\SC(N3CCC4(CC3)OCc3ccccc34)=NC2=O)no1` [Example 93, 5-[(5-methyl-1,2-oxazol-3-yl)methylidene]-2-(1′H,3H-spiro[2-benzofuran-1,4′-piperidin]-1′-yl)-1,3-thiazol-4(5H)-one], the “pKi hV1a” value rises from 7.1 to 8.1.

Compared with `CC(=O)OCC(COC(C)=O)=C1SC(N2CCC3(CC2)OCc2ccccc23)=NC1=O` [Example 72, 2-[4-oxo-2-(1′H,3H-spiro[2-benzofuran-1,4′-piperidin]-1′-yl)-1,3-thiazol-5(4H)-ylidene]propane-1,3-diyl diacetate], `C/C(CO[Si](C)(C)C(C)(C)C)=C1/SC(N2CCC3(CC2)OCc2ccccc23)=NC1=O` [Example 59, (5Z)-5-(1-{[tert-butyl(dimethyl)silyl]oxy}propan-2-ylidene)-2-(1′H,3H-spiro[2-benzofuran-1,4′-piperidin]-1′-yl)-1,3-thiazol-4(5H)-one] is lower in “pKi hV1a” value: 8.3 for the first, 6.5 for the second.

Compared with `C/C(=C1\SC(N2CCC3(CC2)OCc2ccccc23)=NC1=O)c1cccnc1Cl` [Example 84, (5E)-5-[1-(2-chloropyridin-3-yl)ethylidene]-2-(1′H,3H-spiro[2-benzofuran-1,4′-piperidin]-1′-yl)-1,3-thiazol-4(5H)-one], `CC(C)(C)/C(=C1/SC(N2CCC3(CC2)OCc2ccccc23)=NC1=O)c1ccc(Cl)cc1` [Example 21, (5E/Z)-5-[1-(4-chlorophenyl)-2,2-dimethylpropylidene]-2-(1′H,3H-spiro[2-benzofuran-1,4′-piperidin]-1′-yl)-1,3-thiazol-4(5H)-one] is higher in “pKi hV1a” value: 7.7 for the first, 7.9 for the second.

Going from `COCC(COC)=C1SC(N2CCC3(CC2)OCc2ncccc23)=NC1=O` [Example 163, 5-(1,3-dimethoxypropan-2-ylidene)-2-(1′H,7H-spiro[furo[3,4-b]pyridine-5,4′-piperidin]-1′-yl)-1,3-thiazol-4(5H)-one] to `C/C(CO[Si](C)(C)C(C)(C)C)=C1\SC(N2CCC3(CC2)OCc2ccccc23)=NC1=O` [Example 58, (5E)-5-(1-{[tert-butyl(dimethyl)silyl]oxy}propan-2-ylidene)-2-(1′H,3H-spiro[2-benzofuran-1,4′-piperidin]-1′-yl)-1,3-thiazol-4(5H)-one], the “pKi hV1a” value rises from 7.0 to 7.2.

Compared with `COC1CCCC/C1=C1/SC(N2CCC3(CC2)OCc2ccccc23)=NC1=O` (centres unmarked) [Example 73, (5E/Z)-5-(2-methoxycyclohexylidene)-2-(1′H,3H-spiro[2-benzofuran-1,4′-piperidin]-1′-yl)-1,3-thiazol-4(5H)-one], `O=C1N=C(N2CCC3(CC2)OCc2ccccc23)SC1=C1CCOCC1` [Example 44, 2-(1′H,3H-spiro[2-benzofuran-1,4′-piperidin]-1′-yl)-5-(tetrahydro-4H-pyran-4-ylidene)-1,3-thiazol-4(5H)-one] is lower in “pKi hV1a” value: 8.8 for the first, 8.1 for the second.
